From ChEMBL document CHEMBL4145475, “Integration of multi-scale molecular modeling approaches with experiments for the in silico guided design and discovery of novel hERG-Neutral antihypertensive oxazalone and imidazolone derivatives and analysis of their potential restrictive effects on cell proliferation” (Eur J Med Chem, 2018)
Activity calls are given as the source filed them. No cut-off for these calls is given here.

Tests used:
A549 [1] = test: Cytotoxicity against human A549 cells at 1 to 10 uM after 72 hrs measured during wound-healing assay; assay type: cell-based; conditions: a549, 72 h
MCF7 [2] = test: Cell cycle arrest in human MCF7 cells assessed as decrease in cells at G0/G1 phase after 48 hrs by propidium iodide staining-based flow cytometric analysis; assay type: functional
HUVEC [3] = test: Cell cycle arrest in human HUVEC cells assessed as decrease in cells at G0/G1 phase after 24 hrs by propidium iodide staining-based flow cytometric analysis; assay type: ADME
[4] = molecular target: T1, Type-1 angiotensin II receptor (Homo sapiens, UniProt P30556); test: (§1) Displacement of [125I-Sar1-Ile8]-Ang2 from human angiotensin 2 receptor type 1 receptor expressed in HEK293 cells after 1 hr by gamma counting analysis; assay type: cell-based
T1 sequence (P30556 whole entry): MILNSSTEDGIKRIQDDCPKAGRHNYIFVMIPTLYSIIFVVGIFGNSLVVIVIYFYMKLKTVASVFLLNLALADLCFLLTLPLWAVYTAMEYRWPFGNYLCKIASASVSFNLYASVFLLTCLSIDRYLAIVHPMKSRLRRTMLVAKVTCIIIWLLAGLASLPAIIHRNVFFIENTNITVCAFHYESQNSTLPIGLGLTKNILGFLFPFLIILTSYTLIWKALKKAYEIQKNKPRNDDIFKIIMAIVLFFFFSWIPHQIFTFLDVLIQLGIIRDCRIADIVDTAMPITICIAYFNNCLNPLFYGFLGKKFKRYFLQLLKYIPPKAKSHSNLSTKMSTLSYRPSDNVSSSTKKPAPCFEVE

HUVEC [5] = test: Cell cycle arrest in human HUVEC cells assessed as accumulation of cells with 8N DNA content at 100 uM after 1 to 2 days by propidium iodide staining-based flow cytometric analysis relative to control; assay type: ADME
NCI-H358 [6] = test: Antimigratory activity against human NCI-H358 cells at 10 uM after 48 hrs by wound-healing assay; assay type: functional, cell-based
HUVEC [7] = test: Cell cycle arrest in human HUVEC cells assessed as cell detachment at 50 to 100 uM after 24 hrs by propidium iodide staining-based flow cytometric analysis; assay type: ADME
MCF7 [8] = test: Cell cycle arrest in human MCF7 cells assessed as accumulation of cells at subG1 phase at 50 to 100 uM after 24 hrs by propidium iodide staining-based flow cytometric analysis; assay type: functional
MCF7 [9] = test: Cell cycle arrest in human MCF7 cells assessed as cell death at 50 to 100 uM after 24 hrs by propidium iodide staining-based flow cytometric analysis; assay type: functional
NCI-H358 [10] = test: Cytotoxicity against human NCI-H358 cells up to 30 uM after 48 hrs by WST-1 assay; assay type: cell-based; conditions: nci-h358, 48 h
NIH3T3 [11] = test: Cytotoxicity against mouse NIH/3T3 cells at 1 to 10 uM after 72 hrs measured during wound-healing assay; assay type: cell-based; conditions: nih3t3, 72 h
NCI-H358 [12] = test: Cytotoxicity against human NCI-H358 cells at 1 to 10 uM after 48 hrs measured during wound-healing assay; assay type: cell-based; conditions: nci-h358, 48 h
NIH3T3 [13] = test: Antimigratory activity against mouse NIH/3T3 cells at 10 uM after 72 hrs by wound-healing assay; assay type: ADME, cell-based; conditions: nih3t3, 72 h
A549 [14] = test: Antimigratory activity against human A549 cells at 10 uM after 72 hrs by wound-healing assay; assay type: functional, cell-based
MCF7 [15] = test: Cell cycle arrest in human MCF7 cells assessed as accumulation of cells with 8N DNA content at 100 uM after 1 to 2 days by propidium iodide staining-based flow cytometric analysis relative to control; assay type: functional
HUVEC [16] = test: Cell cycle arrest in human HUVEC cells assessed as increase in cells at G2/M phase after 24 hrs by propidium iodide staining-based flow cytometric analysis; assay type: ADME
HUVEC [17] = test: Cell cycle arrest in human HUVEC cells assessed as cell death at 50 to 100 uM after 24 hrs by propidium iodide staining-based flow cytometric analysis; assay type: ADME
HUVEC [18] = test: Cell cycle arrest in human HUVEC cells assessed as accumulation of cells at subG1 phase at 50 to 100 uM after 24 hrs by propidium iodide staining-based flow cytometric analysis; assay type: ADME
MCF7 [19] = test: Cell cycle arrest in human MCF7 cells assessed as cell detachment at 50 to 100 uM after 24 hrs by propidium iodide staining-based flow cytometric analysis; assay type: functional
NIH3T3 [20] = test: Cytotoxicity against mouse NIH/3T3 cells up to 30 uM after 48 hrs by WST-1 assay; assay type: cell-based; conditions: nih3t3, 48 h
A549 [21] = test: Cytotoxicity against human A549 cells up to 30 uM after 48 hrs by WST-1 assay; assay type: cell-based; conditions: a549, 48 h
MCF7 [22] = test: Cell cycle arrest in human MCF7 cells assessed as increase in cells at G2/M phase after 48 hrs by propidium iodide staining-based flow cytometric analysis; assay type: functional
[23] = molecular target: T2, Type-1 angiotensin II receptor (Homo sapiens) (UniProt P30556); test: as §1; assay type: cell-based
T2 sequence (whole entry): T1 sequence (P30556 whole entry)

| SMILES | Activity (A549 [1]) | Ki [4] [nM] | Activity (NCI-H358 [6]) | Activity (NCI-H358 [10]) | Activity (NIH3T3 [11]) | Activity (NCI-H358 [12]) | Activity (NIH3T3 [13]) | Activity (A549 [14]) | Activity (NIH3T3 [20]) | Activity (A549 [21]) | further results |
| --- | --- | --- | --- | --- | --- | --- | --- | --- | --- | --- | --- |
| CCCCC1=N/C(=C\c2ccc(Br)cc2)C(=O)N1Cc1ccc(-c2ccccc2C#N)cc1 | Non-Toxic | 24800 | Active | Non-Toxic | Non-Toxic | Non-Toxic | Toxic | Active | Non-Toxic | Non-Toxic | Activity (MCF7 [2]): Dose-dependent effect; Activity (HUVEC [3]): Dose-dependent effect; Activity (HUVEC [5]): 90%; Activity (HUVEC [7]): Toxic; Activity (MCF7 [8]): Active; Activity (MCF7 [9]): Active; Activity (MCF7 [15]): >70%; Activity (HUVEC [16]): Dose-dependent effect; Activity (HUVEC [17]): Toxic; Activity (HUVEC [18]): Toxic; Activity (MCF7 [19]): Active; Activity (MCF7 [22]): Dose-dependent effect |
| CCCCC1=N/C(=C\c2ccc(Br)cc2)C(=O)N1Cc1ccc(-c2ccccc2-c2nnn(C(c3ccccc3)(c3ccccc3)c3ccccc3)n2)cc1 | Non-Toxic |  | Active | Non-Toxic | Non-Toxic | Non-Toxic |  |  | Non-Toxic | Non-Toxic |  |
| CCCCC(=O)N(Cc1ccc(-c2ccccc2-c2nnn[nH]2)cc1)[C@H](C(=O)O)C(C)C |  |  | Active | Non-Toxic |  |  | Toxic | Active | Non-Toxic | Non-Toxic |  |
| CCCCC1=N/C(=C\c2ccccc2Br)C(=O)N1Cc1ccc(-c2ccccc2-c2nnn(C(c3ccccc3)(c3ccccc3)c3ccccc3)n2)cc1 | Non-Toxic | 317 |  | Non-Toxic | Non-Toxic | Non-Toxic | Toxic | Active | Non-Toxic | Non-Toxic | inhibition [23]: Dose-dependent effect |
| CCOc1nc2cccc(C(=O)O)c2n1Cc1ccc(-c2ccccc2-c2nnn[nH]2)cc1 |  | 10.4 |  |  |  |  |  |  |  |  |  |
| CCCCC1=N/C(=C\c2cccc(Cl)c2)C(=O)N1Cc1ccc(-c2ccccc2-c2nnn(C(c3ccccc3)(c3ccccc3)c3ccccc3)n2)cc1 | Non-Toxic |  |  | Non-Toxic | Non-Toxic | Non-Toxic |  | Active | Non-Toxic | Non-Toxic |  |
| CCCCC1=N/C(=C\c2cccc(Br)c2)C(=O)N1Cc1ccc(-c2ccccc2-c2nnn(C(c3ccccc3)(c3ccccc3)c3ccccc3)n2)cc1 | Non-Toxic |  | Active | Non-Toxic | Non-Toxic | Non-Toxic |  | Active | Non-Toxic | Non-Toxic |  |
| CCCCC1=N/C(=C\c2ccc(Cl)cc2)C(=O)N1Cc1ccc(-c2ccccc2-c2nnn(C(c3ccccc3)(c3ccccc3)c3ccccc3)n2)cc1 | Non-Toxic |  |  | Non-Toxic | Non-Toxic | Non-Toxic |  |  | Non-Toxic | Non-Toxic |  |
